Consider 16 compounds from ChEMBL document CHEMBL1806368 (Bioorg Med Chem Lett, 2011).

A short description of data set [1]: Aqueous solubility of the compound at pH 7.4. Type of data set: physicochemical. To be noted: buffer.
Data set [2] can be described thus: Plasma concentration in human NCI-H1975 cell xenografted mouse at 25 mg/kg, iv after 24 hrs. The class given is ADME, organism-based. More on the design: dose 25 mg/kg, route intravenous.
Data set [3] in a line: Plasma concentration in human NCI-H1975 cell xenografted mouse at 25 mg/kg, iv after 6 hrs. Type of data set: ADME, organism-based. Also noted: dose 25 mg/kg, route intravenous.
A short description of data set [4]: Drug level in tumor in human U87MG cells xenografted mouse at 50 mg/kg, iv after 24 hrs. The note with it: read-out: Drug uptake. More on the design: dose 50 mg/kg, route intravenous. Type of data set: ADME, organism-based, Neoplasm, U-87MG ATCC.
Data set [5] in a line: Tmax in CD1 mouse at 20 mg/kg, po. Type of data set: ADME, organism-based. Also noted: dose 20 mg/kg, route oral. The note with it: in vivo.
A short description of data set [6]: Plasma concentration in human U87MG cells xenografted mouse at 50 mg/kg, iv after 24 hrs. The class given is ADME, organism-based, U-87MG ATCC. More on the design: dose 50 mg/kg, route intravenous.
A short description of data set [7]: Bioavailability in CD1 mouse at 2 mg/kg, iv. To be noted: in vivo. The class given is ADME, organism-based.
The nature of data set [8]: Drug level in tumor in human NCI-H1975 cell xenografted mouse at 25 mg/kg, iv after 6 hrs. The class given is ADME, organism-based, Neoplasm. Also noted: dose 25 mg/kg, route intravenous. To be noted: read-out: Drug uptake.
Data set [9] can be described thus: Plasma concentration in human U87MG cells xenografted mouse at 50 mg/kg, po after 24 hrs. Type of data set: ADME, organism-based, U-87MG ATCC. Also noted: dose 50 mg/kg, route oral.
Data set [10] in a line: AUC (0 to infinity) in CD1 mouse at 20 mg/kg, po. The class given is ADME, organism-based. Also noted: time infinity, dose 20 mg/kg, route oral. To be noted: plasma.
Data set [11] in a line: Volume of distribution at steady state in CD1 mouse at 2 mg/kg, iv. Type of data set: ADME, organism-based. More on the design: dose 2 mg/kg, route intravenous. The note with it: in vivo, read-out: Vdss.
A short description of data set [12]: Drug level in tumor in human U87MG cells xenografted mouse at 50 mg/kg, po after 6 hrs. The class given is ADME, organism-based, Neoplasm, U-87MG ATCC. Also noted: dose 50 mg/kg, route oral. The note with it: read-out: Drug uptake.
Data set [13] can be described thus: Drug level in tumor in human U87MG cells xenografted mouse at 50 mg/kg, iv after 6 hrs. To be noted: read-out: Drug uptake. Also noted: dose 50 mg/kg, route intravenous. Type of data set: ADME, organism-based, Neoplasm, U-87MG ATCC.
Data set [14] in a line: Drug level in tumor in human U87MG cells xenografted mouse at 50 mg/kg, po after 24 hrs. Type of data set: ADME, organism-based, Neoplasm, U-87MG ATCC. More on the design: dose 50 mg/kg, route oral. To be noted: read-out: Drug uptake.
Data set [15] can be described thus: Cmax in CD1 mouse at 20 mg/kg, po. The class given is ADME, organism-based. More on the design: dose 20 mg/kg, route oral. The note with it: in vivo.
A short description of data set [16]: Plasma concentration in human U87MG cells xenografted mouse at 50 mg/kg, iv after 6 hrs. Type of data set: ADME, organism-based, U-87MG ATCC. More on the design: dose 50 mg/kg, route intravenous.
Data set [17] can be described thus: Drug level in tumor in human NCI-H1975 cell xenografted mouse at 25 mg/kg, iv after 24 hrs. To be noted: read-out: Drug uptake. The class given is ADME, organism-based, Neoplasm. More on the design: dose 25 mg/kg, route intravenous.
Data set [18] can be described thus: Plasma concentration in human U87MG cells xenografted mouse at 50 mg/kg, po after 6 hrs. Also noted: dose 50 mg/kg, route oral. The class given is ADME, organism-based, U-87MG ATCC.
Data set [19] can be described thus: AUC (0 to infinity) in CD1 mouse at 2 mg/kg, iv. Type of data set: ADME, organism-based. Also noted: time infinity, dose 2 mg/kg, route intravenous. To be noted: plasma.

Each structure is given as a SMILES string. ≈ marks a conversion by molar mass, not a printed value.

On to `Cc1c2c(n3c1CCN(C(=O)[C@@H]1C[C@H](F)CN1)C[C@@H](C)[C@H](C)Nc1cc-3ccc1C(N)=O)CC(C)(C)CC2=O`, for which the solubility in data set [1] (read-out: solubility) turned out to be 100 µg/mL (≈ 186 µM).
On the same count and under the same terms, the same measure for `Cc1c2c(n3c1CCN(C(=O)[C@H]1CCCN1)C[C@@H](C)[C@H](C)Nc1cc-3ccc1C(N)=O)CC(C)(C)CC2=O`: more than 100 µg/mL; for `Cc1c2c(n3c1CCN(C(=O)[C@H](C)N)CC[C@H](C)Nc1cc-3ccc1C(N)=O)CC(C)(C)CC2=O`: more than 100 µg/mL; for `Cc1c2c(n3c1CCN(C(=O)CN)C[C@@H](C)[C@H](C)Nc1cc-3ccc1C(N)=O)CC(C)(C)CC2=O`: 46 µg/mL (≈ 95.9 µM).
The same measure, in the same setting: the same measure for `Cc1c2c(n3c1CCN(C(=O)[C@H](C)O)C[C@@H](C)[C@H](C)Nc1cc-3ccc1C(N)=O)CC(C)(C)CC2=O`: 60 µg/mL (≈ 121 µM); for `Cc1c2c(n3c1CCN(C(=O)C1(N)CCCC1)C[C@@H](C)[C@H](C)Nc1cc-3ccc1C(N)=O)CC(C)(C)CC2=O`: 53 µg/mL (≈ 99.3 µM).
For `Cc1c2c(n3c1CCN(C(=O)[C@H](C)N)C[C@@H](C)[C@H](C)Nc1cc-3ccc1C(N)=O)CC(C)(C)CC2=O`, the concentration at 24 h in data set [2] came out at 9 ng/mL; in data set [4], 772 ng/g; in [6], 45 ng/mL; in [9], 6 ng/mL; in [14], 242 ng/g; in data set [17], 910 ng/g. Besides, the concentration at 6 h in data set [3] turned out to be 36 ng/mL; in [8] it was 693 ng/g; in data set [12], 309 ng/g; in data set [13] it was 967 ng/g; in data set [16] it was 102 ng/mL; in data set [18], 53 ng/mL. The Tmax in data set [5] was 1 h. Also, the solubility in data set [1] (read-out: solubility) is 10 µg/mL (≈ 20.3 µM). In data set [7], the bioavailability worked out at 4%. Further, the AUC(0-inf) in data set [10] came to 234 ng·h/mL; in data set [19], 542 ng·h/mL. Besides, in data set [11], the Vd stood at 30 L/kg. Also, the peak level in [15] (Cmax) was 22 ng/mL.
As to `Cc1c2c(n3c1CCN(C(=O)C(C)(C)N)C[C@@H](C)[C@H](C)Nc1cc-3ccc1C(N)=O)CC(C)(C)CC2=O`, the solubility in [1] (read-out: solubility) was more than 100 µg/mL.
On the same count and under the same terms, the figure for `Cc1c2c(n3c1CCN(C(=O)C1(N)CC1)C[C@@H](C)[C@H](C)Nc1cc-3ccc1C(N)=O)CC(C)(C)CC2=O` is 7 µg/mL (≈ 13.8 µM).
Same read-out and setting: the same measure for `Cc1c2c(n3c1CCN(C(=O)[C@@H]1CCCN1)C[C@@H](C)[C@H](C)Nc1cc-3ccc1C(N)=O)CC(C)(C)CC2=O`: more than 100 µg/mL.
On to `Cc1c2c(n3c1CCCN1CCC[C@H]1CNc1cc-3ccc1C(N)=O)CC(C)(C)CC2=O`, for which the solubility in data set [1] turned out to be 2324 µg/mL (≈ 5350 µM).
With `Cc1c2c(n3c1CCN(C(=O)[C@@H](O)C(C)C)C[C@@H](C)[C@H](C)Nc1cc-3ccc1C(N)=O)CC(C)(C)CC2=O`, the solubility in data set [1] (read-out: solubility) turned out to be 30 µg/mL (≈ 57.4 µM).
The same measure, in the same setting: the figure for `Cc1c2c(n3c1CCCNC[C@H](C)Nc1cc-3ccc1C(N)=O)CC(C)(C)CC2=O` is more than 100 µg/mL; for `Cc1c2c(n3c1CCN(C(=O)[C@@H](N)C(C)C)C[C@@H](C)[C@H](C)Nc1cc-3ccc1C(N)=O)CC(C)(C)CC2=O` it is more than 100 µg/mL.
The same measure, in the same setting: the same measure for `CC[C@H](N)C(=O)N1CCc2c(C)c3c(n2-c2ccc(C(N)=O)c(c2)N[C@@H](C)[C@H](C)C1)CC(C)(C)CC3=O`: more than 100 µg/mL; for `CC(=O)N1CCc2c(C)c3c(n2-c2ccc(C(N)=O)c(c2)N[C@@H](C)[C@H](C)C1)CC(C)(C)CC3=O`: 38 µg/mL (≈ 81.8 µM).
